Test results published in ChEMBL document CHEMBL1149708, “Novel sulfonamides having dual dopamine D2 and D3 receptor affinity show in vivo antipsychotic efficacy with beneficial cognitive and EPS profile” (Bioorg Med Chem Lett, 2007).
Activity calls are given as the source filed them. The calls are words filed in the database; no cut-off is given here.

Columns and labels:
D(3) dopamine receptor = D(3) dopamine receptor (Rattus norvegicus, UniProt P19020); test: Displacement of [3H]spiperone from rat dopamine D3 receptor expressed in Sf9 cells
Chain of D(3) dopamine receptor (P19020 whole entry): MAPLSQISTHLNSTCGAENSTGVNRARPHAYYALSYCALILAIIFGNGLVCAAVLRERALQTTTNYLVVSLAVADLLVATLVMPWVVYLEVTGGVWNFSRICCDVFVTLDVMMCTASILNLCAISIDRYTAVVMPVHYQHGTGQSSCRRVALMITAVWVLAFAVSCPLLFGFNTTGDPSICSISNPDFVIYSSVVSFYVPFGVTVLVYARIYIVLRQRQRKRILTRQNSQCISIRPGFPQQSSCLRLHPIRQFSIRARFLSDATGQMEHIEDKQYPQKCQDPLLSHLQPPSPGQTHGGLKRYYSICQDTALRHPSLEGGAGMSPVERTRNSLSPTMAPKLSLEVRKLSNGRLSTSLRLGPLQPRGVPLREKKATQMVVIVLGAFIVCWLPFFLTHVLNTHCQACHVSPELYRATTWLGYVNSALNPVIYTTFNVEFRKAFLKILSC

D(2) dopamine receptor = D(2) dopamine receptor (Rattus norvegicus, UniProt P61169); test: Displacement of [3H]spiperone from dopamine D2 receptor in rat striatal membranes; format: cell membranes, Membrane
Chain of D(2) dopamine receptor (P61169 whole entry): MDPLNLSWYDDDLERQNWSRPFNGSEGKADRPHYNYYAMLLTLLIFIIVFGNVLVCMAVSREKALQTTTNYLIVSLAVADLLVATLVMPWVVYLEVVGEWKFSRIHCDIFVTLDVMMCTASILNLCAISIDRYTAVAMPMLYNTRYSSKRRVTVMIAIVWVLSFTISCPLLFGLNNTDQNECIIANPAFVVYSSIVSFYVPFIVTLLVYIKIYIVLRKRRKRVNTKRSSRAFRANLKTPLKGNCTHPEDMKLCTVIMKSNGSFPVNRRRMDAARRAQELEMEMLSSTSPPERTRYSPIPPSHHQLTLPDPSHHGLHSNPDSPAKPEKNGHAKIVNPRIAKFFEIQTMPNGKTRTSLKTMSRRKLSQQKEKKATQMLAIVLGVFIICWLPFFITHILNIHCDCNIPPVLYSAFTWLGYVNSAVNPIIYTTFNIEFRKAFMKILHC

Rattus norvegicus [1] = test: Antipsychotic activity in orally dosed Wistar rat assessed as inhibition of conditioned avoidance response after 1 hr; format: functional; conditions: po
Mus musculus = test: Antipsychotic activity in orally dosed CD1 mice assessed as inhibition of […] induced climbing behavior; conditions: CD1, po
[2] = Tmax in orally dosed rat brain; format: ADME, organism-based; conditions: po
[3] = Bioavailability in rat at 10 mg/kg; format: ADME, organism-based; conditions: in vivo
Rattus norvegicus [4] = test: Catalepsy in orally dosed Wistar rat after 30 mins; format: functional
[5] = Cmax in orally dosed rat brain; format: ADME, organism-based; design: route oral; conditions: po
[6] = target: D(2) dopamine receptor (Homo sapiens) (UniProt P14416); test: Antagonistic activity at human D2 expressed in CHO cells by [35S]GTP-gamma-S binding assay; format: functional, cell-based
Chain of D(2) dopamine receptor (Homo sapiens) (P14416 whole entry): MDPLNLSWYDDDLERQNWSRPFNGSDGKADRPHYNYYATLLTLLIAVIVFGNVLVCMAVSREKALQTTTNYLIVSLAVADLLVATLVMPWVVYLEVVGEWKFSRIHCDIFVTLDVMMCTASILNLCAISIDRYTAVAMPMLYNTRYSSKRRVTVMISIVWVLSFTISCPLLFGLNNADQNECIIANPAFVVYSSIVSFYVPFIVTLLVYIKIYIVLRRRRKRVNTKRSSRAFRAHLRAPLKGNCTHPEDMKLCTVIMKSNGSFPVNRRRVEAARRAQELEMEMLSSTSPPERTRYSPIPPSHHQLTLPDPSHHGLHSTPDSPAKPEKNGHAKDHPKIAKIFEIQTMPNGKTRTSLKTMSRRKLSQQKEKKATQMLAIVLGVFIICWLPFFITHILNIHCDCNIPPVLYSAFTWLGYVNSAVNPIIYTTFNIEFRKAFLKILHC

[7] = target: D(3) dopamine receptor (Homo sapiens) (UniProt P35462); test: Antagonistic activity at human D3 receptor expressed in CHO cells by [35S]GTP-gamma-S binding assay; format: functional, cell-based
Chain of D(3) dopamine receptor (Homo sapiens) (P35462 whole entry): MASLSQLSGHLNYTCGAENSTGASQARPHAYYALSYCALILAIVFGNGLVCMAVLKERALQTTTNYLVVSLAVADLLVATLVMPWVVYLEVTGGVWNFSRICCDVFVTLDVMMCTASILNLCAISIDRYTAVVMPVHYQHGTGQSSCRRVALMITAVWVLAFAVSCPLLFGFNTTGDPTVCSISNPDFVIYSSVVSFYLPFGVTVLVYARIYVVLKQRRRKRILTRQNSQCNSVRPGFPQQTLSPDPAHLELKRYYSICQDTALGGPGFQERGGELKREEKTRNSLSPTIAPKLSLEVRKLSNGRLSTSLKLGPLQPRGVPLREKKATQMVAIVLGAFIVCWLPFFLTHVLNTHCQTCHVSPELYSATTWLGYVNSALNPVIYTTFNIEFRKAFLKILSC

SMILES	IC50 (D(3) dopamine receptor) [nM]	IC50 (D(2) dopamine receptor) [nM]	further results
O=S(=O)(N[C@H]1CC[C@H](CCN2CCC(Nc3cc(Cl)ccc3Cl)CC2)CC1)c1ccc(F)cc1	2	9	–
O=C1COc2ccc(S(=O)(=O)N[C@H]3CC[C@H](CCN4CCC(Oc5cccc(C(F)(F)F)c5)CC4)CC3)cc2N1	1	5.3	–
COc1ccc(S(=O)(=O)N[C@H]2CC[C@H](CCN3CCN(c4ccc(Br)cc4OC)CC3)CC2)cc1	0.5	28	–
COc1ccc(S(=O)(=O)N[C@H]2CC[C@H](CCN3CCN(c4cccc(C#N)c4)CC3)CC2)cc1OC	0.7	57	–
O=C1CCc2ccc(OCCCCN3CCN(c4cccc(Cl)c4Cl)CC3)cc2N1 [ARIPIPRAZOLE]	–	–	ED50 (Rattus norvegicus [1]): 17.9 mg/kg
N#Cc1cc(N2CCN(CC[C@H]3CC[C@H](NS(=O)(=O)c4ccc5c(c4)CCC(=O)N5)CC3)CC2)cc(C(F)(F)F)c1	0.7	30	–
O=S(=O)(N[C@H]1CC[C@H](CCN2CCC(Cc3cccc(C(F)(F)F)c3)CC2)CC1)c1ccc(-n2cccn2)cc1	0.5	4.3	–
Cc1cc2c(s1)Nc1ccccc1N=C2N1CCN(C)CC1 [OLANZAPINE]	–	–	ED50 (Rattus norvegicus [1]): 3.9 mg/kg
O=S(=O)(N[C@H]1CC[C@H](CCN2CCC(Cc3cccc(C(F)(F)F)c3)CC2)CC1)c1ccc(Cl)cc1	3.8	41	–
O=S(=O)(N[C@H]1CC[C@H](CCN2CCN(c3cccc(Cl)c3Cl)CC2)CC1)c1cccnc1	0.2	4	–
O=S(=O)(N[C@H]1CC[C@H](CCN2CCC(Cc3cccc(C(F)(F)F)c3)CC2)CC1)c1cc2ccccc2s1	2.6	91	–

More lines, main results first:

IC50 (D(3) dopamine receptor) [nM]	IC50 (D(2) dopamine receptor) [nM]	SMILES	further results
5.8	23	N#Cc1cc(N2CCN(CC[C@H]3CC[C@H](NS(=O)(=O)c4cccc(C#N)c4)CC3)CC2)cc(C(F)(F)F)c1	–
4.2	39	Cc1ccc(S(=O)(=O)N[C@H]2CC[C@H](CCN3CCN(c4cc(C#N)cc(C(F)(F)F)c4)CC3)CC2)cn1	–
0.4	24	N#Cc1cc(N2CCN(CC[C@H]3CC[C@H](NS(=O)(=O)c4cccnc4)CC3)CC2)cc(C(F)(F)F)c1	ED50 (Mus musculus): 22 mg/kg; Tmax [2]: 1 h; bioavailability [3]: 55%; MED (Rattus norvegicus [4]): >200 mg/kg; Cmax [5]: 921 ng/mL; ED50 (Rattus norvegicus [1]): 11.6 mg/kg; Activity [6]: Active; Activity [7]: Active
3.3	26	N#Cc1cc(N2CCN(CC[C@H]3CC[C@H](NS(=O)(=O)c4ccc(Br)cc4)CC3)CC2)cc(C(F)(F)F)c1	–
0.9	39	CC(=O)Nc1ccc(S(=O)(=O)N[C@H]2CC[C@H](CCN3CCN(c4cc(C#N)cc(C(F)(F)F)c4)CC3)CC2)cc1	–
